In the NIST ThermoML archive (doi:10.1016/j.jct.2009.10.003):
± gives the expanded uncertainty stated by the source.

Tests used:
[1] = molar heat capacity at constant pressure; conditions: 298.15 K; 101.33 kPa; Liquid; Small sample (50 mg) DSC
[2] = Crystal; DTA
[3] = Molar enthalpy of transition or fusion; conditions: Crystal; DSC

| SMILES | molar heat capacity at constant pressure [1] [J/K/mol] | Normal melting temperature [2] [°C] | Molar enthalpy of transition or fusion [3] [kcal/mol] |
| --- | --- | --- | --- |
| NS(=O)(=O)c1ccccc1[N+](=O)[O-] [2-nitrobenzenesulfonamide] | 179.54 ± 8.5 | 189.92 ± 0.39 | 6.77 ± 0.155 |
| NS(=O)(=O)c1cccc([N+](=O)[O-])c1 [3-nitrobenzenesulfonamide] | 199.96 ± 8.5 | 164.00 ± 0.39 | 7.52 ± 0.177 |
| NS(=O)(=O)c1ccc([N+](=O)[O-])cc1 [4-nitrobenzenesulfonamide] | 219.98 ± 13 | 180.46 ± 0.39 | 7.12 ± 0.155 |
